Source: PubChem BioAssay AID192 (DTP/NCI, 2004)
Values joined by “and” are separate entries in the source; they are usually repeats but may differ in a detail not shown here. Equal entries are not always repeated. Toxic doses and inconclusive results are not listed. The calls were made as follows: active = survival T/C of 150% or more; inactive = T/C below 125% in these data.

Tested on: BDF1 mice, B16 melanoma ip, median survival T/C
Assay: NCI In Vivo Anticancer Drug Screen. Data for tumor model B16 Melanoma (intraperitoneal) in B6D2F1 (BDF1) mice
Conditions: endpoint: median survival time, higher = longer survival
Procedure: The antitumor activity of compounds was measured in mice bearing transplantable tumors. Survival or tumor size were measured and the results are expressed as the measurement made in the treated group (T) divided by the measurement made in the vehicle treated control group (C). The tumor model used in this assay is B16 Melanoma (intraperitoneal) in B6D2F1 (BDF1) mice

[1] = dose: 100.0 mg/kg/injection, schedule: Q01DX009 (ip), vehicle: saline with Tween-80
[2] = dose: 25.0 mg/kg/injection, schedule: Q01DX009 (ip), vehicle: saline with Tween-80
[3] = dose: 3.12 mg/kg/injection, schedule: Q01DX009 (ip), vehicle: Klucel (hydroxypropylcellulose) (HPC)
[4] = dose: 25.0 mg/kg/injection, schedule: Q01DX009 (ip), vehicle: Klucel (hydroxypropylcellulose) (HPC)

Measured: T/C

Cc1c(N)nc([C@H](CC(N)=O)NC[C@H](N)C(N)=O)nc1C(=O)N[C@H](C(=O)N[C@H](C)[C@@H](O)[C@H](C)C(=O)N[C@H](C(=O)NCCc1nc(-c2nc(C(=O)NCCC[S+](C)C)cs2)cs1)[C@@H](C)O)C(OC1OC(CO)C(O)C(O)C1OC1OC(CO)C(O)C(OC(N)=O)C1O)c1cnc[nH]1 (some centres undefined)
inactive: dose: 1.0 mg/kg/injection, schedule: Q01DX009 (ip), vehicle: clinical formulation 114 % of control | dose: 2.0 mg/kg/injection, schedule: Q01DX009 (ip), vehicle: clinical formulation 121 % of control | dose: 3.9 mg/kg/injection, schedule: Q01DX009 (ip), vehicle: saline 102 % of control | dose: 4.0 mg/kg/injection, schedule: Q01DX009 (ip), vehicle: clinical formulation 120 % of control | dose: 7.8 mg/kg/injection, schedule: Q01DX009 (ip), vehicle: saline 102 % of control | dose: 8.0 mg/kg/injection, schedule: Q01DX009 (ip), vehicle: clinical formulation 124 % of control | dose: 15.6 mg/kg/injection, schedule: Q01DX009 (ip), vehicle: saline 102 % of control | dose: 16.0 mg/kg/injection, schedule: Q01DX009 (ip), vehicle: clinical formulation 123 % of control | dose: 31.3 mg/kg/injection, schedule: Q01DX009 (ip), vehicle: saline 109 % of control

OC(CCl)Cc1ccccc1 (centres undefined)
inactive: dose: 12.5 mg/kg/injection, schedule: Q01DX009 (ip), vehicle: saline 102 % of control | dose: 25.0 mg/kg/injection, schedule: Q01DX009 (ip), vehicle: saline 95 % of control | dose: 50.0 mg/kg/injection, schedule: Q01DX009 (ip), vehicle: saline 100 % of control

CCC[P+](c1ccccc1)(c1ccccc1)c1ccccc1
inactive: dose: 2.0 mg/kg/injection, schedule: Q01DX009 (ip), vehicle: saline 96 % of control | dose: 4.0 mg/kg/injection, schedule: Q01DX009 (ip), vehicle: saline 98 % of control | dose: 8.0 mg/kg/injection, schedule: Q01DX009 (ip), vehicle: saline 115 % of control | dose: 16.0 mg/kg/injection, schedule: Q01DX009 (ip), vehicle: saline 115 % of control | dose: 32.0 mg/kg/injection, schedule: Q01DX009 (ip), vehicle: saline 108 % of control

CN1N=C(N)c2cn(C3OC(COP(=O)(O)O)C(O)C3O)c3ncnc1c23 (centres undefined)
inactive: dose: 6.25 mg/kg/injection, schedule: Q01DX009 (ip), vehicle: water 89 % of control and 92 % of control | dose: 12.5 mg/kg/injection, schedule: Q01DX009 (ip), vehicle: water 90 % of control | dose: 25.0 mg/kg/injection, schedule: Q01DX009 (ip), vehicle: water 93 % of control | dose: 50.0 mg/kg/injection, schedule: Q01DX009 (ip), vehicle: water 96 % of control | dose: 100.0 mg/kg/injection, schedule: Q01DX009 (ip), vehicle: water 88 % of control

Cc1cc(C(C)C)cc(C(C)C)c1
inactive: dose: 6.25 mg/kg/injection, schedule: Q04DX003 (ip), vehicle: Klucel (hydroxypropylcellulose) (HPC) 102 % of control | dose: 12.5 mg/kg/injection, schedule: Q04DX003 (ip), vehicle: Klucel (hydroxypropylcellulose) (HPC) 108 % of control | dose: 25.0 mg/kg/injection, schedule: Q04DX003 (ip), vehicle: Klucel (hydroxypropylcellulose) (HPC) 105 % of control | dose: 50.0 mg/kg/injection, schedule: Q04DX003 (ip), vehicle: Klucel (hydroxypropylcellulose) (HPC) 88 % of control | dose: 100.0 mg/kg/injection, schedule: Q04DX003 (ip), vehicle: Klucel (hydroxypropylcellulose) (HPC) 98 % of control | dose: 200.0 mg/kg/injection, schedule: Q04DX003 (ip), vehicle: Klucel (hydroxypropylcellulose) (HPC) 97 % of control

O=C1CCCNc2ccccc21
inactive: dose: 25.0 mg/kg/injection, schedule: Q04DX003 (ip), vehicle: saline with Tween-80 100 % of control | dose: 50.0 mg/kg/injection, schedule: Q04DX003 (ip), vehicle: saline with Tween-80 102 % of control | dose: 75.0 mg/kg/injection, schedule: Q04DX003 (ip), vehicle: saline with Tween-80 114 % of control | dose: 100.0 mg/kg/injection, schedule: Q04DX003 (ip), vehicle: saline with Tween-80 101 % of control | dose: 200.0 mg/kg/injection, schedule: Q04DX003 (ip), vehicle: saline with Tween-80 103 % of control | dose: 400.0 mg/kg/injection, schedule: Q04DX003 (ip), vehicle: saline with Tween-80 90 % of control

NC(=O)NC1CCCCCC1
inactive: [1] 108 % of control | dose: 200.0 mg/kg/injection, schedule: Q01DX009 (ip), vehicle: saline with Tween-80 104 % of control | dose: 400.0 mg/kg/injection, schedule: Q01DX009 (ip), vehicle: saline with Tween-80 95 % of control

Nc1cc2c(c[n+](CCCCCCCC[n+]3cc4c5ccccc5c(N)cc4c4ccccc43)c3ccccc23)c2ccccc12
inactive: dose: 0.78 mg/kg/injection, schedule: Q01DX009 (ip), vehicle: distilled water + Tween-80 120 % of control | dose: 1.25 mg/kg/injection, schedule: Q01DX009 (ip), vehicle: saline with Tween-80 118 % of control | dose: 1.56 mg/kg/injection, schedule: Q04DX003 (ip), vehicle: distilled water + Tween-80 114 % of control | dose: 2.5 mg/kg/injection, schedule: Q01DX009 (ip), vehicle: saline with Tween-80 123 % of control | dose: 3.12 mg/kg/injection, schedule: Q04DX003 (ip), vehicle: distilled water + Tween-80 108 % of control | dose: 12.5 mg/kg/injection, schedule: Q01DX009 (ip), vehicle: distilled water + Tween-80 88 % of control | dose: 25.0 mg/kg/injection, schedule: Q04DX003 (ip), vehicle: distilled water + Tween-80 106 % of control
active: dose: 2.59 mg/kg/injection, schedule: Q01DX009 (ip), vehicle: distilled water + Tween-80 156 % of control | dose: 4.32 mg/kg/injection, schedule: Q01DX009 (ip), vehicle: distilled water + Tween-80 167 % of control | dose: 6.25 mg/kg/injection, schedule: Q01DX009 (ip), vehicle: distilled water + Tween-80 162 % of control | dose: 7.2 mg/kg/injection, schedule: Q01DX009 (ip), vehicle: distilled water + Tween-80 180 % of control | dose: 10.0 mg/kg/injection, schedule: Q01DX009 (ip), vehicle: saline with Tween-80 166 % of control | dose: 12.0 mg/kg/injection, schedule: Q01DX009 (ip), vehicle: distilled water + Tween-80 182 % of control | dose: 20.0 mg/kg/injection, schedule: Q01DX009 (ip), vehicle: saline with Tween-80 160 % of control

NC(=O)c1ccccc1OCc1ccccc1
inactive: dose: 75.0 mg/kg/injection, schedule: Q01DX009 (ip), vehicle: Klucel (hydroxypropylcellulose) (HPC) 100 % of control | dose: 150.0 mg/kg/injection, schedule: Q01DX009 (ip), vehicle: Klucel (hydroxypropylcellulose) (HPC) 101 % of control | dose: 300.0 mg/kg/injection, schedule: Q01DX009 (ip), vehicle: Klucel (hydroxypropylcellulose) (HPC) 101 % of control

COc1cc2c(cc1OC)C(OC)N(C)c1c-2ccc2cc3c(cc12)OCO3 (centres undefined)
inactive: [2] 122 % of control

O.O.O=c1[nH]cc(CO)c(=O)[nH]1.[NH2-].[NH2-].[Pt+2]
active: [4] 185 % of control
inactive: [3] 107 % of control | dose: 6.25 mg/kg/injection, schedule: Q01DX009 (ip), vehicle: Klucel (hydroxypropylcellulose) (HPC) 106 % of control

CC(=O)Nc1ccc(S(=O)(=O)N/N=C\c2ccc(Cl)c(Cl)c2)cc1
inactive: dose: 6.25 mg/kg/injection, schedule: Q01DX009 (ip), vehicle: saline with Tween-80 111 % of control | dose: 12.5 mg/kg/injection, schedule: Q01DX009 (ip), vehicle: saline with Tween-80 105 % of control | [2] 117 % of control

CC(=O)[C@H]1CC[C@H]2[C@@H]3CCC4=CC(=O)CC[C@]4(C)[C@H]3CC[C@]12C
inactive: dose: 12.5 mg/kg/injection, schedule: Q02DX009 (ip), vehicle: Klucel (hydroxypropylcellulose) (HPC) 104 % of control | dose: 25.0 mg/kg/injection, schedule: Q02DX009 (ip), vehicle: Klucel (hydroxypropylcellulose) (HPC) 96 % of control | dose: 50.0 mg/kg/injection, schedule: Q02DX009 (ip), vehicle: Klucel (hydroxypropylcellulose) (HPC) 100 % of control | dose: 100.0 mg/kg/injection, schedule: Q02DX009 (ip), vehicle: Klucel (hydroxypropylcellulose) (HPC) 91 % of control | dose: 200.0 mg/kg/injection, schedule: Q02DX009 (ip), vehicle: Klucel (hydroxypropylcellulose) (HPC) 120 % of control | dose: 400.0 mg/kg/injection, schedule: Q02DX009 (ip), vehicle: Klucel (hydroxypropylcellulose) (HPC) 104 % of control

COc1ccccc1N=Nc1c(O)ccc2ccccc12
inactive: [2] 101 % of control | dose: 50.0 mg/kg/injection, schedule: Q01DX009 (ip), vehicle: saline with Tween-80 112 % of control | [1] 108 % of control

CC1=CC(=Nc2ccc(N(CCCl)CCCl)cc2)C=C(C)C1=O
inactive: [3] 102 % of control and 110 % of control
active: dose: 12.5 mg/kg/injection, schedule: Q01DX009 (ip), vehicle: Klucel (hydroxypropylcellulose) (HPC) 160 % of control | [4] 160 % of control | dose: 100.0 mg/kg/injection, schedule: Q01DX009 (ip), vehicle: Klucel (hydroxypropylcellulose) (HPC) 158 % of control
